Experimental data as given in patent US7872045B2, “Combination therapy for glaucoma treatment” (Allergan, Inc., priority 2001, dated 2011).

What was measured:
[1] = biological target: T1, human EP2 receptor (hEP2) (Homo sapiens, UniProt P43116); test: Radioligand binding competition vs [3H]PGE2, human recombinant EP2 receptor; conditions: [3H]PGE2 competition, plasma membranes of HEK-293 stable transfectants, 60 min 25° C.
T1 construct: expressed in transfected cells; plasma membrane fraction
Protocol: (§1) Human Recombinant EP1, EP2, EP4, and FP Receptors: Stable Transfectants
(§2) HEK-293 cells stably expressing the human or feline FP receptor, or EP1, EP2, EP3, or EP4 receptors were washed with TME buffer, scraped from the bottom of the flasks, and homogenized for 30 sec using a Brinkman PT 10/35 polytron. TME buffer was added to achieve a final 40 ml volume in the centrifuge tubes (the composition of TME is […]; ION HCl is added to achieve a pH of 7.4).
(§3) The cell homogenate was centrifuged at 19000 r.p.m. for 20 min at 4° C. using a Beckman Ti-60 rotor. The resultant pellet was resuspended in TME buffer to give a final 1 mg/ml protein concentration, as determined by Biorad assay. Radioligand binding competition assays vs. [^3H-]17 -phenyl PGF2α (5 nM) were performed in a 100 μl volume for 60 min. Binding reactions were started by adding plasma membrane fraction. The reaction was terminated by the addition of 4 ml ice-cold TRIS-HCl buffer and rapid filtration through glass fiber GF/B filters using a Brandel cell harvester. The filters were washed 3 times with ice-cold buffer and oven dried for one hour. Non-specific binding was determined with 10 uM unlabeled 17 -phenyl PGF2α.
(§4) [^3H-] PGE2 (5 nM; specific activity 180 Ci mmol) was used as the radioligand for EP receptors. Binding studies employing EP1, EP2, EP3, EP4 were performed in duplicate in at least three separate experiments. A 200 μl assay volume was used. Incubations were for 60 min at 25° C. and were terminated by the addition of 4 ml of ice-cold 50 mM TRIS-HCl, followed by rapid filtration through Whatman GF/B filters and three additional 4 ml washes in a cell harvester (Brandel). Non-specific binding determined with 10^−5M of unlabeled PGE2,.
(§5) Plasmids encoding the human EP1, EP2, EP4, and FP receptors were prepared by cloning the respective coding sequences into the eukaryotic expression vector pCEP4 (Invitrogen). The pCEP4 vector contains an Epstein Barr virus (EBV) origin of replication, which permits episomal replication in primate cell lines expressing EBV nuclear antigen (EBNA-1). Similarly, competitive experiments were caried out using [3H]17-phenylPGF2α at 5 nM in the presence of test ligands at various concentrations. Also non-specific binding was, determined in the presence of excess unlabeled PGF2α (10^−5 M).
(§6) It also contains a hygromycin resistance gene that is used for eukaryotic selection. The cells employed for stable transfection were human embryonic kidney cells (HEK-293) that were transfected with and express the EBNA-1 protein. These HEK-293-EBNA cells (Invitrogen) were grown in medium containing Geneticin (G418) to maintain expression of the EBNA-1 protein. HEK-293 cells were grown in DMEM with 10% fetal bovine serum (FBS), 250 μg ml G418 (Life Technologies) and 200 μg ml^−1 gentamicin or penicillin/streptomycin.
(§7) For transfection, the cells were grown to 50-60% confluency on 10 cm plates. The plasmid pCEP4 incorporating cDNA inserts for the respective human prostanoid receptor (20 μg) was added to 500 μl of 250 mM CaCl2. HEPES buffered saline ×2 (2×HBS, 280 mM NaCl, 20 mM HEPES acid, 1.5 mM Na2 HPO4, pH 7.05-7.12) was then added dropwise to a total of […], with continuous vortexing at room temperature. After 30 min, 9 ml DMEM were added to the mixture. The DNA/DMEM/calcium phosphate mixture was then added to the cells, which had been previously rinsed with 10 ml PBS. The cells were then incubated for 5 hr at 37° C. in humidified 95% air/5% CO2. The calcium phosphate solution was then removed and the cells were treated with 10% glycerol in DMEM for 2 min. The glycerol solution was then replaced by DMEM with 10% FBS. The cells were incubated overnight and the medium was replaced by DMEM/10% FBS containing 250 μg ml^−1 G418 and penicillin/streptomycin. The following day hygromycin B was added to a final concentration of 200 μg ml^−1. […]

[2] = biological target: T2, human EP3 receptor (hEP3, D isoform) (Homo sapiens, UniProt P43115); test: Radioligand binding competition vs [3H]PGE2, human recombinant EP3 receptor; conditions: [3H]PGE2 competition, plasma membranes of transfected cells (COS-7 transient; HEK-293 also named), 60 min 25° C.
T2 construct: expressed in transfected cells; host or cells: COS-7 cells, transient transfection with pcDNA3 (lipofectin); plasma membrane fraction
T2 sequence (P43115 1-374 isoform P43115-4): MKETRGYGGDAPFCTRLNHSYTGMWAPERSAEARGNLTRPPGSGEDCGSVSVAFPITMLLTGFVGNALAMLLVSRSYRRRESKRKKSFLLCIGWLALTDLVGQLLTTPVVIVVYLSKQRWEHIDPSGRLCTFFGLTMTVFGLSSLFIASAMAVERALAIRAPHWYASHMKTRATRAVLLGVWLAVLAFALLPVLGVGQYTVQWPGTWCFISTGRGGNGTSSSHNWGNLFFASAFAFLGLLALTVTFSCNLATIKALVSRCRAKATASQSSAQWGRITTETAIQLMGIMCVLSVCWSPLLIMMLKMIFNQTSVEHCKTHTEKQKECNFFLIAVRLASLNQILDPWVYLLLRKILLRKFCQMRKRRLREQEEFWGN
Protocol: as §2, §4
Human Recombinant EP3 and TP Receptors: Transient Transfectants.
Plasmids encoding the human EP3 (D isoform) or TP receptor were prepared by cloning the respective coding sequences into a pcDNA3 vector (Invitrogen). COS-7 cells were transfected with pcDNA3 containing cDNA encoding the EP3 or TP receptor by employing the lipofectin method, according to the manufacturers instructions (Gibco). For radioligand binding studies, cells were harvested two days after transfection.
Radioligand binding studies on plasma membrane fractions prepared from cells were performed as follows. Cells washed with TME buffer were scraped from the bottom of the plates and homogenized for 30 sec using a Brinkman PT 10/35 polytron. TME buffer was added as necessary to achieve a 40 ml volume in the centrifuge tubes. TME is comprised of 50 mM TRIS base, 10 mM MgCl2, 1 mM EDTA; pH 7.4 is achieved by adding 1 N HCl. The cell homogenate was centrifuged at 19,000 rpm for 20-25 min at 4° C. using a Beckman Ti-60 or T ? -70 rotor. The pellet was then resuspended in TME buffer to provide a final protein concentration of 1 mg/ml, as determined by Bio-Rad assay. Radioligand binding assays were performed in a 100 μl or 200 μl volume.
The binding of [^3H] PGE2 (specific activity 165 Ci/mmol) was determined in duplicate and, in at least 3 separate experiments. Incubations were for 60 min at 25° C. and were terminated by the addition of 4 ml of ice-cold 50 mM TRIS-HCl followed by rapid filtration through Whatman GF/B filters and three additional 4 ml washes in a cell harvester (Brandel). Competition studies were performed using a final concentration of 2.5 or 5 nM [H] PGE2 and non-specific binding was determined with 10^−5 M unlabelled PGE2.

[3] = biological target: T3, human EP4 receptor (hEP4) (Homo sapiens, UniProt P35408); test: Radioligand binding competition vs [3H]PGE2, human recombinant EP4 receptor; conditions: [3H]PGE2 competition, plasma membranes of HEK-293 stable transfectants, 60 min 25° C.
T3 construct: expressed in transfected cells; plasma membrane fraction
T3 sequence (P35408 whole entry): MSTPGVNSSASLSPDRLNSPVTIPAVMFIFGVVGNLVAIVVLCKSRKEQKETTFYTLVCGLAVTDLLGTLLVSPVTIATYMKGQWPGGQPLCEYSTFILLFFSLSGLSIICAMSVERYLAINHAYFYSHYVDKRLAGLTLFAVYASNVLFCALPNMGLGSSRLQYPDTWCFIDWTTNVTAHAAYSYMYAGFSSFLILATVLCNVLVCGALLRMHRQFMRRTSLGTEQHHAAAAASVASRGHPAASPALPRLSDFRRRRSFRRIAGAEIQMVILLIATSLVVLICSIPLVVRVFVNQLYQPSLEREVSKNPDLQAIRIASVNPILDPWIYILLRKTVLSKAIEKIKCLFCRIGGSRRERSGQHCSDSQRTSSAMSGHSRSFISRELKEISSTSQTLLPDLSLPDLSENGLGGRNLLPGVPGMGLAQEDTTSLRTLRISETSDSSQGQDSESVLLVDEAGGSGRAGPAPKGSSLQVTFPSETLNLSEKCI
Protocol: as §1, §2, §3, §4, §5, §6, §7

T1 sequence (P43116 whole entry): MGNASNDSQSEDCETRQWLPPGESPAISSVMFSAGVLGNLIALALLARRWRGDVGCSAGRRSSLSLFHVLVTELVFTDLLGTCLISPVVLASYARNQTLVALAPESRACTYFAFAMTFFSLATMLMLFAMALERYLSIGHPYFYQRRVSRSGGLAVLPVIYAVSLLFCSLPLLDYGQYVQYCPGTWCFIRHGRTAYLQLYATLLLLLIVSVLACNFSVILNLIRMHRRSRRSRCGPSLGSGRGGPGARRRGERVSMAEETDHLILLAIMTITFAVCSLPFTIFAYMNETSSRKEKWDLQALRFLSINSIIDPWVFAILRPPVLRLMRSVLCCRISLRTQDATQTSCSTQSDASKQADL

## O=C(O)CSCCCS[C@H]1C(=O)C[C@@H](O)[C@@H]1/C=C/C(O)CCc1ccc2ccccc2c1 (single isomer, unassigned) [Example 10H]
[1]
  IC50: > 10000 nM
[2]
  IC50: > 10000 nM
[3]
  IC50: 450 nM

## O=C(O)CSCCCS[C@H]1C(=O)C[C@@H](O)[C@@H]1/C=C/C(O)CCc1ccc2ccccc2c1 (single isomer, unassigned) [Example 10L]
[1]
  IC50: > 10000 nM
[2]
  IC50: 8300 nM
[3]
  IC50: 19.5 nM

## O=C(O)CSCCCS[C@H]1C(=O)C[C@@H](O)[C@@H]1/C=C/C(O)Cc1ccc2ccccc2c1 (single isomer, unassigned) [Example 22L]
[1]
  IC50: > 10000 nM
[2]
  IC50: > 10000 nM
[3]
  IC50: 6.2 nM

## COC(=O)CSCCCS[C@H]1C(=O)C[C@@H](O)[C@@H]1/C=C/C(O)Cc1csc2ccccc12 (single isomer, unassigned) [Example 24L]
[1]
  IC50: 9300 nM
[2]
  IC50: > 10000 nM
[3]
  IC50: 30 nM

## O=C(O)CSCCCS[C@H]1C(=O)C[C@@H](O)[C@@H]1/C=C/C(O)Cc1csc2ccccc12 (single isomer, unassigned) [Example 25H]
[1]
  IC50: > 10000 nM
[3]
  IC50: 69 nM

## O=C(O)CSCCCS[C@H]1C(=O)C[C@@H](O)[C@@H]1/C=C/C(O)Cc1csc2ccccc12 (single isomer, unassigned) [Example 25L]
[1]
  IC50: 2200 nM
[2]
  IC50: > 10000 nM
[3]
  IC50: 5 nM

## COC(=O)CSCCCS[C@H]1C(=O)C[C@@H](O)[C@@H]1/C=C/[C@@H](O)CCc1cc2ccccc2s1 [Example 13L, {3-[(1R,2S,3R)-3-Hydroxy-2-((S)-(E)-3-hydroxy-5-(benzothienyl)pent-1-enyl)-5-oxocyclopentylsulfanyl]propylsulfanyl}acetic acid methyl ester]
[1]
  IC50: > 10000 nM
[2]
  IC50: 7200 nM
[3]
  IC50: 93 nM

## O=C(O)CSCCCS[C@H]1C(=O)C[C@@H](O)[C@@H]1/C=C/[C@@H](O)CCc1cc2ccccc2s1 [Example 14H, {3-[(1R,2S,3R)-3-Hydroxy-2-((S)-(E)-3-hydroxy-5-(benzothienyl)pent-1-enyl)-5-oxocyclopentylsulfanyl]propylsulfanyl}acetic acid]
[1]
  IC50: > 10000 nM
[2]
  IC50: > 10000 nM
[3]
  IC50: 27 nM

## O=C(O)CSCCCS[C@H]1C(=O)C[C@@H](O)[C@@H]1/C=C/[C@@H](O)CCc1cc2ccccc2s1 [Example 14L, {3-[(1R,2S,3R)-3-Hydroxy-2-((S)-(E)-3-hydroxy-5-(benzothienyl)pent-1-enyl)-5-oxocyclopentylsulfanyl]propylsulfanyl}acetic acid]
[1]
  IC50: ≥ 10000 nM
[2]
  IC50: > 10000 nM
[3]
  IC50: 13 nM

## C[C@@](O)(/C=C/[C@H]1[C@H](O)CC(=O)[C@@H]1SCCCSCC(=O)O)CCc1cc2ccccc2s1 [Example 34H, {3-[(1R,2S,3R)-3-Hydroxy-2-((S)-(E)-3-(hydroxy)-3-(methyl)-5-(benzothienyl)pent-1-enyl)-5-oxocyclopentylsulfanyl]propylsulfanyl}acetic acid]
[1]
  IC50: > 10000 nM
[2]
  IC50: > 10000 nM
[3]
  IC50: 32 nM

## C[C@@](O)(/C=C/[C@H]1[C@H](O)CC(=O)[C@@H]1SCCCSCC(=O)O)CCc1cc2ccccc2s1 [Example 34L, {3-[(1R,2S,3R)-3-Hydroxy-2-((S)-(E)-3-(hydroxy)-3-(methyl)-5-(benzothienyl)pent-1-enyl)-5-oxocyclopentylsulfanyl]propylsulfanyl}acetic acid]
[2]
  IC50: > 10000 nM
[3]
  IC50: 68 nM
